Laboratory results as given in ChEMBL document CHEMBL5143672, “New diarylpentanoids and chalcones as potential antimicrobial adjuvants” (2022).

How the values were obtained:
Aspergillus fumigatus = assay: Antifungal activity against Aspergillus fumigatus ATCC 204305 assessed as inhibition of fungal growth by broth microdilution method; assay type: functional
Enterococcus faecalis [1] = assay: Antimicrobial adjuvant activity against Enterococcus faecalis B3/101 assessed as potentiation of vancomycin-induced antibacterial activity by measuring fold reduction in vancomycin MIC at 64 ug/ml by broth microdilution method; assay type: functional; conditions: dose 64 µg/ml
[2] = Inhibition of Multidrug resistance efflux pump in Staphylococcus aureus 272123 assessed as relative fluorescence index using ethidium bromide as substrate at 50 uM by fluorescence based analysis
[3] = system: Salmonella enterica subsp. enterica serovar Typhimurium; assay: Inhibition of Multidrug resistance efflux pump in Salmonella enterica serovar typhimurium SL1344 (SE03) assessed as relative fluorescence index using ethidium bromide as substrate at 50 uM by fluorescence based analysis
Trichophyton rubrum = assay: Antifungal activity against Trichophyton rubrum FF5 assessed as inhibition of fungal growth by broth microdilution method; assay type: functional
Enterococcus faecalis [4] = assay: Antibacterial activity against Enterococcus faecalis ATCC 29212 assessed as inhibition of bacterial growth by broth microdilution method; assay type: functional
Candida albicans = assay: Antifungal activity against Candidia albicans ATCC 10231 assessed as inhibition of fungal growth by broth microdilution method; assay type: functional
Staphylococcus aureus [5] = assay: Antibacterial activity against Staphylococcus aureus ATCC 25923 assessed as inhibition of bacterial growth by broth microdilution method; assay type: functional
Salmonella typhimurium = assay: Antibacterial activity against Salmonella enterica serovar typhimurium SL1344 (SE03) assessed as inhibition of bacterial growth by broth microdilution method; assay type: functional, Salmonella enterica subsp. enterica serovar Typhimurium
Escherichia coli [6] = assay: Antibacterial activity against Escherichia coli ATCC 25922 assessed as inhibition of bacterial growth by broth microdilution method; assay type: functional
Staphylococcus aureus [7] = assay: Antibacterial activity against methicillin and ofloxacin-resistant Staphylococcus aureus 272123 assessed as inhibition of bacterial growth by broth microdilution method; assay type: functional
Pseudomonas aeruginosa = assay: Antibacterial activity against Pseudomonas aeruginosa ATCC 27853 assessed as inhibition of bacterial growth by broth microdilution method; assay type: functional
Escherichia coli [8] = assay: Antimicrobial adjuvant activity against ESBL-producing Escherichia coli SA/2 assessed as potentiation of cefotaxime-induced antibacterial activity by measuring fold reduction in cefotaxime MIC at 64 ug/ml by broth microdilution method; assay type: functional; conditions: dose 64 µg/ml

SMILES | MIC (Aspergillus fumigatus) | fold change (FC) (Enterococcus faecalis [1]) | RFU [2] | RFU [3] | MIC (Trichophyton rubrum) | MIC (Enterococcus faecalis [4]) | MIC (Candida albicans) | MIC (Staphylococcus aureus [5]) | MIC (Salmonella typhimurium) | MIC (Escherichia coli [6]) | MIC (Staphylococcus aureus [7]) | MIC (Pseudomonas aeruginosa) | fold change (FC) (Escherichia coli [8])
COc1cc(/C=C2\COC/C(=C\c3cc(OC)cc(OC)c3)C2=O)cc(OC)c1 | > 128 µg/mL | 4 | 0.25 | 0.09 | > 128 µg/mL | > 64 µg/mL | > 128 µg/mL | > 64 µg/mL | > 64 µg/mL | > 64 µg/mL | > 64 µg/mL | > 64 µg/mL | –
O=C1/C(=C/c2cccc(F)c2)COC/C1=C\c1cccc(F)c1 | > 128 µg/mL | 2 | -0.16 | 0.04 | > 128 µg/mL | > 64 µg/mL | > 128 µg/mL | > 64 µg/mL | > 64 µg/mL | > 64 µg/mL | > 64 µg/mL | > 64 µg/mL | –
COc1ccccc1/C=C1\CC/C(=C\c2ccccc2OC)C1=O | > 128 µg/mL | 2 | -0.39 | 0.15 | > 128 µg/mL | > 64 µg/mL | > 128 µg/mL | > 64 µg/mL | > 64 µg/mL | > 64 µg/mL | > 64 µg/mL | > 64 µg/mL | –
COc1ccc(/C=C2\COC/C(=C\c3ccc(OC)cc3OC)C2=O)c(OC)c1 | > 128 µg/mL | – | -0.19 | -0.15 | > 128 µg/mL | > 64 µg/mL | > 128 µg/mL | > 64 µg/mL | > 64 µg/mL | > 64 µg/mL | > 64 µg/mL | > 64 µg/mL | 8
COc1ccccc1/C=C1\Cc2ccccc2C1=O | > 128 µg/mL | 2 | 0.05 | 0.25 | > 128 µg/mL | > 64 µg/mL | > 128 µg/mL | > 64 µg/mL | > 64 µg/mL | > 64 µg/mL | > 64 µg/mL | > 64 µg/mL | –
Cc1ccc(/C=C2\COC/C(=C\c3ccc(C)cc3)C2=O)cc1 | > 128 µg/mL | 2 | -0.24 | -0.21 | > 128 µg/mL | > 64 µg/mL | > 128 µg/mL | > 64 µg/mL | > 64 µg/mL | > 64 µg/mL | > 64 µg/mL | > 64 µg/mL | 2
O=C1/C(=C/c2ccccc2Cl)COC/C1=C\c1ccccc1Cl | > 128 µg/mL | – | -0.16 | -0.08 | > 128 µg/mL | > 64 µg/mL | > 128 µg/mL | > 64 µg/mL | > 64 µg/mL | > 64 µg/mL | > 64 µg/mL | > 64 µg/mL | 2
COc1ccccc1/C=C1\COC/C(=C\c2ccccc2OC)C1=O | > 128 µg/mL | – | 0.21 | 0.16 | > 128 µg/mL | > 64 µg/mL | > 128 µg/mL | > 64 µg/mL | > 64 µg/mL | > 64 µg/mL | > 64 µg/mL | > 64 µg/mL | 2
O=C1/C(=C/c2ccc(Cl)cc2Cl)COC/C1=C\c1ccc(Cl)cc1Cl | > 128 µg/mL | – | -0.25 | -0.13 | > 128 µg/mL | > 64 µg/mL | > 128 µg/mL | > 64 µg/mL | > 64 µg/mL | > 64 µg/mL | > 64 µg/mL | > 64 µg/mL | 2
O=C1/C(=C/c2ccccc2F)COC/C1=C\c1ccccc1F | > 128 µg/mL | – | -0.08 | -0.04 | > 128 µg/mL | > 64 µg/mL | > 128 µg/mL | > 64 µg/mL | > 64 µg/mL | > 64 µg/mL | > 64 µg/mL | > 64 µg/mL | 2
COc1cccc(/C=C2\COC/C(=C\c3cccc(OC)c3)C2=O)c1 | > 128 µg/mL | 4 | 0.17 | 0.05 | > 128 µg/mL | > 64 µg/mL | > 128 µg/mL | > 64 µg/mL | > 64 µg/mL | > 64 µg/mL | > 64 µg/mL | > 64 µg/mL | –
COc1cc(/C=C2\COC/C(=C\c3cc(OC)c(OC)c(OC)c3)C2=O)cc(OC)c1OC | > 128 µg/mL | – | 0.02 | -0.05 | > 128 µg/mL | > 64 µg/mL | > 128 µg/mL | > 64 µg/mL | > 64 µg/mL | > 64 µg/mL | > 64 µg/mL | > 64 µg/mL | 2
Cc1ccccc1/C=C1\COC/C(=C\c2ccccc2C)C1=O | > 128 µg/mL | 2 | -0.23 | -0.08 | > 128 µg/mL | > 64 µg/mL | > 128 µg/mL | > 64 µg/mL | > 64 µg/mL | > 64 µg/mL | > 64 µg/mL | > 64 µg/mL | –
O=C1/C(=C/c2ccc(F)cc2)COC/C1=C\c1ccc(F)cc1 | > 128 µg/mL | – | -0.11 | 0.17 | > 128 µg/mL | > 64 µg/mL | > 128 µg/mL | > 64 µg/mL | > 64 µg/mL | > 64 µg/mL | > 64 µg/mL | > 64 µg/mL | 8
COc1ccccc1/C=C1\CSC/C(=C\c2ccccc2OC)C1=O | > 128 µg/mL | 4 | 0.01 | 0.01 | > 128 µg/mL | > 64 µg/mL | > 128 µg/mL | > 64 µg/mL | > 64 µg/mL | > 64 µg/mL | > 64 µg/mL | > 64 µg/mL | –
O=C1/C(=C/c2ccc(C(F)(F)F)cc2)COC/C1=C\c1ccc(C(F)(F)F)cc1 | > 128 µg/mL | – | -0.12 | -0.24 | > 128 µg/mL | > 64 µg/mL | > 128 µg/mL | > 64 µg/mL | > 64 µg/mL | > 64 µg/mL | > 64 µg/mL | > 64 µg/mL | 2
O=C1/C(=C/c2ccccc2Br)COC/C1=C\c1ccccc1Br | > 128 µg/mL | 2 | -0.05 | -0.02 | > 128 µg/mL | > 64 µg/mL | > 128 µg/mL | > 64 µg/mL | > 64 µg/mL | > 64 µg/mL | > 64 µg/mL | > 64 µg/mL | –
